How the values were obtained:
[1] = In vivo biotransformation of orally administered CPI1020, blood of mice; conditions: mice given CPI1020 orally
From the text: (§1) Commonly owned U.S. patent application Ser. No. 08/227,777, referred to above, discloses several benzamides useful in treating neurodegenerative diseases based on their protective action in the MPTP mouse model of Parkinson's disease. […] This compound is likely formed in the body by reduction of the ring nitro of CPI1020 to an amino moiety (CPI1160) followed by acetylation of the amino function.

[2] = In vivo biotransformation of orally administered CPI1020, blood of rats; conditions: rats given CPI1020 orally
From the text: as §1

[3] = system: MPTP-induced reduction in striatal dopamine, C57BL/6J mice; experiment: Dopamine depletion studies (MPTP mouse model of Parkinson's disease); assay type: in vivo; conditions: for preventing dopamine depletion following MPTP challenge (in words): Table 1 conditions, 30 mg/kg p.o.
Description: These findings have led to the development of an assay for agents effective in treating dopamine-associated neurodegenerative disorders, such as Parkinson's disease. In this assay, test animals are given an amount of MPTP adequate to severely depress their dopamine levels. Test compounds are administered to determine if they are capable of preventing the loss of dopamine in the test animals. To the extent that dopamine levels are retained, a compound can be considered to be an effective agent for slowing or delaying the course of neurodegenerative disease, e.g., Parkinson's disease. C57BL/6J mice were pretreated with either vehicle (1% methyl cellulose) or a drug (p.o.) 30 min before MPTP. MPTP was dissolved in isotonic saline (0.9%) and given subcutaneously as a single dose of 15 mg free base/kg body weight to produce a reduction in striatal dopamine to about 0.5 nanomoles/mg protein. Groups of mice (n=8–10 per group) received either vehicle plus saline, vehicle plus MPTP or drug plus MPTP. Seventy two hours after receiving MPTP, mice were sacrificed using cervical dislocation and the striata were excised. The tissue was homogenized in 0.4 N perchloric acid, centrifuged, and the supernatant analyzed by high performance liquid chromatography/electro-chemical detection (HPLC/ED) for dopamine levels. Supernatants were stored in a −90° C. freezer between the time of collection and analysis. The drugs were combined with methyl cellulose and were homogenized in water for dosing. The dosage amount ranged from 10 to 50 mg/kg for CPI1160, CPI1189 and CPI1234, and from 50 to 100 mg/kg for CPI1020.

Row | SMILES | in vivo biotransformation product of CPI1020 in blood [1] | in vivo biotransformation product of CPI1020 in blood [2] | preventing dopamine depletion following MPTP challenge (in words) [3] | protection from the neurotoxic action of MPTP (% of control) ([3]; 50 mg/kg p.o., 15 mg/kg MPTP model) | melting point
1 | CC(=O)Nc1ccc(C(=O)NC(C)(C)C)cc1 [CPI1189, N-tert-butyl-4-acetamidobenzamide] | found in the blood | found in the blood | effective |  | 
2 | CC(C)(C)NC(=O)c1ccc([N+](=O)[O-])cc1 [CPI1020, N-tert-butyl-4-nitrobenzamide, reference compound] |  |  |  | 65 % of control | 
3 | CC(=O)Nc1cccc(C(=O)NC(C)(C)C)c1 [CPI1234, N-tert-butyl-3-acetamidobenzamide] |  |  | effective |  | 194 to 195 °C
4 | CC(C)(C)NC(=O)c1ccc(N)cc1 [CPI1160, N-tert-butyl-4-aminobenzamide] |  |  | effective |  | 125 to 127 °C

— patent US7005546B2, “Acetamidobenzamide compounds for neurodegenerative disorders” (Renovis, Inc., priority 1995, dated 2006)
